Assay results reported in ChEMBL document CHEMBL1201862, “PubChem BioAssay data set” (2004).
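Results reflect a 48-hour exposure of cells in 96-well plates to compound at five concentrations. At the GI50, growth is halved.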 Active and inactive are the calls of the source. Cut-off read from the data, not from the text of the source: active = GI50 up to about 1.1 µM and inactive = higher.

How the values were obtained:
Experiment in all cases: DTP human tumour cell line panel, 48 h
HOP-92 = tested on: HOP-92
OVCAR-8 = tested on: OVCAR-8
RXF 631 = tested on: RXF 631
SF-539 = tested on: SF-539
HT-29 = tested on: HT-29
SK-OV-3 = tested on: SK-OV-3
M14 = tested on: M14
RXF 393 = tested on: RXF 393
786-0 = tested on: 786-0
A498 = tested on: A498
U-251 = tested on: U-251
DMS-273 = tested on: DMS-273
M19-MEL = tested on: M19-MEL
MOLT-4 = tested on: MOLT-4
NCI-H522 = tested on: NCI-H522
NCI-H23 = tested on: NCI-H23
HOP-18 = tested on: HOP-18
SF-295 = tested on: SF-295
HCT-116 = tested on: HCT-116
UACC-62 = tested on: UACC-62
SF-268 = tested on: SF-268
IGROV-1 = tested on: IGROV-1
SN12C = tested on: SN12C
UO-31 = tested on: UO-31
LXFL 529 = tested on: LXFL 529
HCT-15 = tested on: HCT-15
NCI-H460 = tested on: NCI-H460
ACHN = tested on: ACHN
XF498 = tested on: XF498
DMS-114 = tested on: DMS-114
LOX IMVI = tested on: LOX IMVI
HOP-62 = tested on: HOP-62
EKVX = tested on: EKVX
CAKI-1 = tested on: CAKI-1
COLO 205 = tested on: COLO 205
TK-10 = tested on: TK-10
KM-20L2 = tested on: KM-20L2
SK-MEL-28 = tested on: SK-MEL-28
HL-60 = tested on: HL-60
A549 = tested on: A549
SK-MEL-2 = tested on: SK-MEL-2
OVCAR-4 = tested on: OVCAR-4
SNB-75 = tested on: SNB-75
CCRF-CEM = tested on: CCRF-CEM
K562 = tested on: K562
DLD-1 = tested on: DLD-1
SK-MEL-5 = tested on: SK-MEL-5
NCI-H226 = tested on: NCI-H226
SNB-19 = tested on: SNB-19
HCC 2998 = tested on: HCC 2998
SW-620 = tested on: SW-620
UACC-257 = tested on: UACC-257
SR = tested on: SR
Malme-3M = tested on: Malme-3M
KM12 = tested on: KM12
OVCAR-5 = tested on: OVCAR-5
OVCAR-3 = tested on: OVCAR-3

CCc1nc2ccccc2c(=O)n1/N=C(\N=N\c1ccc(Cl)cc1)c1ccccc1Cl
GI50 (HOP-92): 20.2 µM (inactive) | GI50 (OVCAR-8): 39.5 µM (inactive) | GI50 (RXF 631): > 100 µM (inactive) | GI50 (SF-539): 47.4 µM (inactive) | GI50 (HT-29): 50.9 µM (inactive) | GI50 (SK-OV-3): 60.7 µM (inactive) | GI50 (M14): 68.5 µM (inactive) | GI50 (RXF 393): 21.1 µM (inactive) | GI50 (786-0): 67.8 µM (inactive) | GI50 (A498): 51.9 µM (inactive) | GI50 (U-251): 49.7 µM (inactive) | GI50 (DMS-273): 38.7 µM (inactive) | GI50 (M19-MEL): > 100 µM (inactive) | GI50 (MOLT-4): 26.1 µM (inactive) | GI50 (NCI-H522): > 10 µM (inactive) | GI50 (NCI-H23): 82.8 µM (inactive) | GI50 (HOP-18): 20 µM (inactive) | GI50 (SF-295): 54.7 µM (inactive) | GI50 (HCT-116): 26.8 µM (inactive) | GI50 (UACC-62): > 100 µM (inactive) | GI50 (SF-268): 28 µM (inactive) | GI50 (IGROV-1): > 100 µM (inactive) | GI50 (SN12C): 57.3 µM (inactive) | GI50 (UO-31): 18.2 µM (inactive) | GI50 (LXFL 529): 23.4 µM (inactive) | GI50 (HCT-15): 68.2 µM | GI50 (NCI-H460): 50.4 µM (inactive) | GI50 (ACHN): 43.2 µM (inactive) | GI50 (XF498): 18.5 µM (inactive) | GI50 (DMS-114): 20.1 µM (inactive) | GI50 (LOX IMVI): 53.2 µM (inactive) | GI50 (HOP-62): 39.3 µM (inactive) | GI50 (EKVX): 2.11 µM (inactive) | GI50 (CAKI-1): 65.5 µM (inactive) | GI50 (COLO 205): 52.6 µM (inactive) | GI50 (TK-10): 82.8 µM (inactive) | GI50 (KM-20L2): 48.3 µM (inactive) | GI50 (SK-MEL-28): 23.5 µM (inactive)

Cc1cccc2c1CCC21OC(=O)c2c1ccc1ccccc21 (configuration not stated)
GI50 (HL-60): 22.1 µM (inactive) | GI50 (A549): > 100 µM (inactive) | GI50 (OVCAR-8): 85.9 µM (inactive) | GI50 (RXF 631): 24.4 µM (inactive) | GI50 (SK-MEL-2): 24.5 µM (inactive) | GI50 (HT-29): 35.3 µM (inactive) | GI50 (OVCAR-4): 52.6 µM (inactive) | GI50 (SNB-75): 82.6 µM (inactive) | GI50 (SK-OV-3): 37.3 µM (inactive) | GI50 (CCRF-CEM): 38.6 µM (inactive) | GI50 (K562): 21.7 µM (inactive) | GI50 (DLD-1): 83.9 µM (inactive) | GI50 (M14): 23.7 µM (inactive) | GI50 (RXF 393): 64 µM (inactive) | GI50 (786-0): 83.9 µM (inactive) | GI50 (SK-MEL-5): 19.6 µM (inactive) | GI50 (NCI-H226): 56.4 µM (inactive) | GI50 (A498): 16.8 µM (inactive) | GI50 (U-251): 45.8 µM (inactive) | GI50 (DMS-273): 32.7 µM (inactive) | GI50 (M19-MEL): 49 µM (inactive) | GI50 (MOLT-4): 24.3 µM (inactive) | GI50 (NCI-H522): > 100 µM (inactive) | GI50 (NCI-H23): 32.9 µM (inactive) | GI50 (HOP-18): 42 µM (inactive) | GI50 (SF-295): 55.5 µM (inactive) | GI50 (HCT-116): 52.2 µM (inactive) | GI50 (SNB-19): 90.4 µM (inactive) | GI50 (UACC-62): 40.3 µM (inactive) | GI50 (SF-268): > 100 µM (inactive) | GI50 (IGROV-1): 55.2 µM (inactive) | GI50 (HCC 2998): 29.4 µM (inactive) | GI50 (SW-620): 39.2 µM (inactive) | GI50 (SN12C): > 100 µM (inactive) | GI50 (UO-31): 47.4 µM (inactive) | GI50 (LXFL 529): 47.6 µM (inactive) | GI50 (UACC-257): 25.8 µM (inactive) | GI50 (HCT-15): 35.6 µM | GI50 (NCI-H460): 42.2 µM (inactive) | GI50 (SR): 29.2 µM (inactive) | GI50 (Malme-3M): 20 µM (inactive) | GI50 (ACHN): 79.1 µM (inactive) | GI50 (KM12): 56.9 µM (inactive) | GI50 (DMS-114): 24.8 µM (inactive) | GI50 (LOX IMVI): 54.8 µM (inactive) | GI50 (HOP-62): 70.1 µM (inactive) | GI50 (EKVX): 68.5 µM (inactive) | GI50 (CAKI-1): 34.5 µM (inactive) | GI50 (COLO 205): 47 µM (inactive) | GI50 (TK-10): 36.1 µM (inactive) | GI50 (KM-20L2): 53.8 µM (inactive) | GI50 (OVCAR-5): 88.5 µM (inactive) | GI50 (OVCAR-3): 26 µM (inactive) | GI50 (SK-MEL-28): 58.2 µM (inactive)
